Test results reported in US11697648B2, “Fused pyrimidine pyridinone compounds as JAK inhibitors” (THERAVANCE BIOPHARMA R&D IP, LLC, priority 2019, dated 2023).

Columns and labels:
[1] = Colon and plasma mouse pharmacokinetics; format: in vivo; settings: male Balb/c mice, 10 mg/kg PO, ratio of the colon AUC to the plasma AUC
Experimental: Assay 5: Colon and Plasma Mouse Pharmacokinetics
To 6 male Balb/c mice was administered 10 mg/kg of compound in 1% HPMC+0.1% Tween-80 by PO administration. At 0.5, 2 and 6 hours after dose administration, animals were anesthetized, and terminal blood samples were collected by cardiac puncture, followed by collection of colon contents and colon tissue.
Blood samples were collected into K2EDTA and stored on wet ice until processed to plasma by centrifugation (12000 rpm at 4° C.). Plasma samples were transferred to cluster tubes and placed on dry ice prior to freezer storage. The colon contents from each animal were collected at each terminal blood collection time point. The colon tissues were flushed with saline and patted dry. The colon and colon content tissues were homogenized using sterile water containing 0.1% formic acid 9:1 (water:tissue, v/w). The homogenized tissues and colon contents were transferred to cluster tubes and placed on dry ice prior to freezer storage. All samples were analyzed using LC/MS/MS against analytical standards.
The composite pharmacokinetic parameters of the compounds were determined by non-compartmental analysis using Phoenix WinNonlin Version 6 (Certara, St. Louis, Mo.) and using mean values from 2 animals/time point. For plasma concentrations below the quantification limit (BQL), the lowest concentration measurable or the BLOQ (below limit of quantification) was used.
A colon to plasma ratio was determined as the ratio of the colon AUC to the plasma AUC.

[2] = biological target: JAK1 (Homo sapiens (Human), UniProt P23458); experiment: Biochemical JAK1 kinase assay (LanthaScreen)
Sequence of JAK1 (P23458 whole entry): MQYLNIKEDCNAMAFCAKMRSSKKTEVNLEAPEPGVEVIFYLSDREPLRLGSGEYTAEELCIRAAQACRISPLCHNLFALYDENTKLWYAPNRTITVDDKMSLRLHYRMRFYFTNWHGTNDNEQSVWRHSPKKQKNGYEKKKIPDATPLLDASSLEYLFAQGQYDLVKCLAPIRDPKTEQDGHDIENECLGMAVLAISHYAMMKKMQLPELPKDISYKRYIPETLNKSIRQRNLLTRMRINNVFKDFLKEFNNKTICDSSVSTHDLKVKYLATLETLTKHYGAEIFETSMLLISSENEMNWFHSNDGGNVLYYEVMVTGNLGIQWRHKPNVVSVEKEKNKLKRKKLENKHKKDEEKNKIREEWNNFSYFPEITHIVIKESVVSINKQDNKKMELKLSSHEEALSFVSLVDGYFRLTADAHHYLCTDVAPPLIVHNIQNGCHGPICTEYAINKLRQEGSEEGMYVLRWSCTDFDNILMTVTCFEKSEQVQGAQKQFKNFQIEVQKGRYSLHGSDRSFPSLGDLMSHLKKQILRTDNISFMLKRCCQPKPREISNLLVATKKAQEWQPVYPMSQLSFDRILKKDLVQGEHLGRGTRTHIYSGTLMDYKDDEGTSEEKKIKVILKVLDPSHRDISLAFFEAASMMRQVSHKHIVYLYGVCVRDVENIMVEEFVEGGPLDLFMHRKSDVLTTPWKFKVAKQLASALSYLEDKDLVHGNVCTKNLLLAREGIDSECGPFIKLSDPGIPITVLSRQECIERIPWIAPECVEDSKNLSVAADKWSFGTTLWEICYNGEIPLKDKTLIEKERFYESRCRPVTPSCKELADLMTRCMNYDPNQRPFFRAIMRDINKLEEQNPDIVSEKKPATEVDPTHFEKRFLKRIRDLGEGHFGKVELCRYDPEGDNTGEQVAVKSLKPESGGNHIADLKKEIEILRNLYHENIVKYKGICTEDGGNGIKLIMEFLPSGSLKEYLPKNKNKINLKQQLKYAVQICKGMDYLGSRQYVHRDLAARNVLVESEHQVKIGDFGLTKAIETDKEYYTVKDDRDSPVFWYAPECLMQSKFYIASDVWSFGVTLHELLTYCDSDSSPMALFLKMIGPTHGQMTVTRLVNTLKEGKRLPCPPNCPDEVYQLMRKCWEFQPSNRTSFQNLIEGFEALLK
Outline: (§1)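 GST-JAK + GFP-STAT1 peptide, HEPES pH 7.5/MgCl2/EGTA/Brij-35 buffer; cpd preincubation 1 h RT; ATP start, 1 h RT; stop with 10 mM EDTA + 2 nM Tb-anti-pSTAT1; TR-FRET 520/495. 4-parameter IC50 → pKi (Cheng-Prusoff).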

[3] = biological target: Tyk2 (Homo sapiens (Human), UniProt P29597); experiment: Biochemical Tyk2 kinase assay (LanthaScreen)
Sequence of Tyk2 (P29597 whole entry): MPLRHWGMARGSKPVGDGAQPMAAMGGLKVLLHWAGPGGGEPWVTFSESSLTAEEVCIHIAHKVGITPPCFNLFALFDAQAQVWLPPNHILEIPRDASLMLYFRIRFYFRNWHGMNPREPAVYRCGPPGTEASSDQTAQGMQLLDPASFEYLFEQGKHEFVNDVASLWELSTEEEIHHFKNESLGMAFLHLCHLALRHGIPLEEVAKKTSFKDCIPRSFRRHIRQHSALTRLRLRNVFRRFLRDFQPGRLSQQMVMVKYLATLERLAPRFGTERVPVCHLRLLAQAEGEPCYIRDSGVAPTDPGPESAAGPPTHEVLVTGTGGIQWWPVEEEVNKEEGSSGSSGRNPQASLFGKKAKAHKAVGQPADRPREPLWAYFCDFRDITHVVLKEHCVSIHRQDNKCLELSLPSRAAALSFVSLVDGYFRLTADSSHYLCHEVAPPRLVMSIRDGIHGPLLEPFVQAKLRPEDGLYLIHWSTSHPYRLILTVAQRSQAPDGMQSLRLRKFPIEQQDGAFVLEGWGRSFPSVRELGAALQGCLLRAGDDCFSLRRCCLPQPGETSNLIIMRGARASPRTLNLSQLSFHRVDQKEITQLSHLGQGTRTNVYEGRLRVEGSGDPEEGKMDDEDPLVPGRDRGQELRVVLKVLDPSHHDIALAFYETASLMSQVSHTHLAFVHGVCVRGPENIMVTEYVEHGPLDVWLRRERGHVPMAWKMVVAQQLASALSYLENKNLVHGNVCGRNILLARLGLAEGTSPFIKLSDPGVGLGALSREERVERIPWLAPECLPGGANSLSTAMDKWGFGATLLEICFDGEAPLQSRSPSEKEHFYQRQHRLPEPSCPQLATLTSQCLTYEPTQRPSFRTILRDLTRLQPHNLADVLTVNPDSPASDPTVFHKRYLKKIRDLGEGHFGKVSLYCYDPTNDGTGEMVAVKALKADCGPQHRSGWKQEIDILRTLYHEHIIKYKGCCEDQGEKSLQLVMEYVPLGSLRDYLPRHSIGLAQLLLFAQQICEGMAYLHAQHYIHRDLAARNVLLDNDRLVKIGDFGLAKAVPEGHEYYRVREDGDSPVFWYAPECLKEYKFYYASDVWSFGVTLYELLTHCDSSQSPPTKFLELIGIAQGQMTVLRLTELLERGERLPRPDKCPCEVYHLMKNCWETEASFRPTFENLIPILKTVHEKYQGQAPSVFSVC
Outline: as §1

[4] = test system: IL-2 stimulated STAT5 phosphorylation in Tall-1 human T cell line (JAK3); experiment: Cellular JAK3 potency assay: inhibition of IL-2 stimulated pSTAT5 in Tall-1 T cells; format: cell-based; settings: IL-2 stimulated pSTAT5, Tall-1 T cells
Outline: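 Tall-1 cells, 45,000 per well, preincubated 1 hour with compound at 37 °C, then stimulated 30 minutes with IL-2 at 300 ng/ml final. pSTAT5 (Tyr694/699) in lysates quantified by AlphaLISA SureFire Ultra. pIC50 derived from inhibition curves, given as mean with SD.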

[5] = biological target: JAK2 (Homo sapiens (Human), UniProt O60674); experiment: Biochemical JAK2 kinase assay (LanthaScreen)
Sequence of JAK2 (O60674 whole entry): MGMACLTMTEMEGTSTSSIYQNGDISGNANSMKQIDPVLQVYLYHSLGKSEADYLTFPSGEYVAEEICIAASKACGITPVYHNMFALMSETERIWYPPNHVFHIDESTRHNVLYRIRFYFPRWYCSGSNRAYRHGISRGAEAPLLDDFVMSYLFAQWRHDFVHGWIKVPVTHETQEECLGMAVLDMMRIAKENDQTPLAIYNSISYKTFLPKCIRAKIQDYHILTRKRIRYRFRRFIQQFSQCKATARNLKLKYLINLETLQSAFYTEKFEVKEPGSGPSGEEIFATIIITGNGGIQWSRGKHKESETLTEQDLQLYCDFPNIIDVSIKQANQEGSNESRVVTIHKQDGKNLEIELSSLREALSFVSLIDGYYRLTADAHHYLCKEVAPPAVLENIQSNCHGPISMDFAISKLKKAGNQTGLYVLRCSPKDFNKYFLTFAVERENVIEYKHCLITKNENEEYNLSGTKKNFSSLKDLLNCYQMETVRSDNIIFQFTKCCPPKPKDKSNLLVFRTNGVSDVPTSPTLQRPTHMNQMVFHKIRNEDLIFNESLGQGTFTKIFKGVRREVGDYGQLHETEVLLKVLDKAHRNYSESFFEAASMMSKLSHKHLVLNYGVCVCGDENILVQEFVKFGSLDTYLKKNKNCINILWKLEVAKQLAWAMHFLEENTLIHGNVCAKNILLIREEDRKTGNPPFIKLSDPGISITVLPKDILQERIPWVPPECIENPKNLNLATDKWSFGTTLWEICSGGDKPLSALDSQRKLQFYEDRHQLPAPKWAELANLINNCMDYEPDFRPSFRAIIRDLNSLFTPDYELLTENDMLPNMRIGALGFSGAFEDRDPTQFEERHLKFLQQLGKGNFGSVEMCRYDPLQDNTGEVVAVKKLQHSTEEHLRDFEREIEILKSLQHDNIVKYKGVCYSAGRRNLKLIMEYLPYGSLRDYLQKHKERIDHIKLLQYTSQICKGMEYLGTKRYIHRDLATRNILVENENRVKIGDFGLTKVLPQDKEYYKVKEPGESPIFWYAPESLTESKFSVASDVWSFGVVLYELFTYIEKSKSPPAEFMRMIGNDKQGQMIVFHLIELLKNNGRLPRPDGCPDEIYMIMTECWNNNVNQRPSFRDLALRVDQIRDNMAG
Outline: as §1

[6] = biological target: JAK3 (Homo sapiens (Human), UniProt P52333); experiment: Biochemical JAK3 kinase assay (LanthaScreen); settings: for JAK3 (pKi)-JAK1 (pKi): selectivity JAK3 over JAK1, difference of pKi
Sequence of JAK3 (P52333 whole entry): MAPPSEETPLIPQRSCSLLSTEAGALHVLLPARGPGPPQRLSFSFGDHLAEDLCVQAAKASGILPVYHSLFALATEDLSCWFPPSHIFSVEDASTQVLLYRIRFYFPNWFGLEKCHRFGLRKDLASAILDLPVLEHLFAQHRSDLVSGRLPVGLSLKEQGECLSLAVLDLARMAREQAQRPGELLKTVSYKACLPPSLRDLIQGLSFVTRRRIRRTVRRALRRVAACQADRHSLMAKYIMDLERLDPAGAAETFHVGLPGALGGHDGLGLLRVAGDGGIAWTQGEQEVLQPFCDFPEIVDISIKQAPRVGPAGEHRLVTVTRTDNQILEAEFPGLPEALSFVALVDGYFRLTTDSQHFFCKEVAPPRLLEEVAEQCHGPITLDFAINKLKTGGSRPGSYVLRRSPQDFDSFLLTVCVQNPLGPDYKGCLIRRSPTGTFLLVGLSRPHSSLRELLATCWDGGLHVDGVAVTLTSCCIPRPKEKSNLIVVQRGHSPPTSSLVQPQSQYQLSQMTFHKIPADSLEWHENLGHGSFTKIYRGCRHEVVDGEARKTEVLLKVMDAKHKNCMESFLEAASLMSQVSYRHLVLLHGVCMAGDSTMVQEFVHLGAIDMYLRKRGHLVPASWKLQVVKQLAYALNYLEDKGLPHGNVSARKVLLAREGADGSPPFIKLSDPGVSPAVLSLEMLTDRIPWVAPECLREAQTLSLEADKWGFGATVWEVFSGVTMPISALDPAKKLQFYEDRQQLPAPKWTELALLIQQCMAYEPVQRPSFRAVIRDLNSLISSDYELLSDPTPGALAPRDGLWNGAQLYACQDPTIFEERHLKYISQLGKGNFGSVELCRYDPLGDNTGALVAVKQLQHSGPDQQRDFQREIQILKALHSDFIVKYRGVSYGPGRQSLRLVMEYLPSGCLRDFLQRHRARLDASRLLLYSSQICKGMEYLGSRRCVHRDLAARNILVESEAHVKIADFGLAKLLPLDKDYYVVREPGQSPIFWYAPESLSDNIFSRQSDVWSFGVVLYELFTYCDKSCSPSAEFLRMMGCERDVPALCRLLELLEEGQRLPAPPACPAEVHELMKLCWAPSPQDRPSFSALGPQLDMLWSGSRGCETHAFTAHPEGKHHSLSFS
Outline: as §1

[7] = test system: Caco-2 cell monolayers; experiment: Caco-2 permeation assay; format: in vitro ADME; settings: 5 μM, A-B direction, with Verapamil (25 μM)
Outline: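 Compounds tested at 5 μM in duplicate across Caco-2 monolayers, apical-to-basolateral, with 25 μM verapamil to block P-gp, at 37° C., 5% CO2. Apical and basal samples taken at 0 and 120 min, analysed by LC-MS/MS; Papp (cm/sec) calculated as dQ/(dt×Area×concentration).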

| SMILES | colon to plasma ratio [1] | Kp ([1]; mouse, colon tissue / plasma) | JAK 1 (pKi) [2] | Tyk 2 (pKi) [3] | Tall-1 (pIC50) [4] | JAK 2 (pKi) [5] | JAK 3 (pKi) [6] | JAK3 (pKi)-JAK1 (pKi) [6] | Caco Kp [7] |
| --- | --- | --- | --- | --- | --- | --- | --- | --- | --- |
| C=CC(=O)N1C[C@H](Nc2ncnc3[nH]ccc23)CC[C@@H]1C [PF-06651600, 2-propen-1-one, 1-[(2S,5R)-2-methyl-5-(7-pyrrolo[2,3-d]pyrimidin-4-ylamino)-1-piperidinyl], reference compound] | 2.8 |  |  |  |  |  |  |  |  |
| C=CC(=O)N1CC(C(C)Cn2c(=O)ccc3cnc(Nc4ccc(N5CCN(C(C)=O)CC5)cc4)nc32)C1 (stereo not drawn) [Example 156] |  | > 14 | E (E represents a pKi value of 7 or below (Ki of 100 nM or above)) | E (E represents a pKi value of 7 or below (Ki of 100 nM or above)) | B (B represents a pC50 value between 6.7 (included) and 7.5 (IC50 between 200 nM and 32 nM)) | E (E represents a pKi value of 7 or below (Ki of 100 nM or above)) | B (B represents pKi value between 9 and 10 (Ki between 1 nM and 0.1 nM)) | A (A represents a value of 3 or above) |  |
| C=CC(=O)N1CCN(CCn2c(=O)ccc3cnc(Nc4cnn(CCF)c4)nc32)[C@@H](CC)C1 [Example 202] |  |  | E (E represents a pKi value of 7 or below (Ki of 100 nM or above)) | E (E represents a pKi value of 7 or below (Ki of 100 nM or above)) | B (B represents a pC50 value between 6.7 (included) and 7.5 (IC50 between 200 nM and 32 nM)) | E (E represents a pKi value of 7 or below (Ki of 100 nM or above)) | B (B represents pKi value between 9 and 10 (Ki between 1 nM and 0.1 nM)) | A (A represents a value of 3 or above) | A (A represents a value below 5×10^−6 cm/sec) |
| C=CC(=O)N1CC(CCn2c(=O)ccc3cnc(Nc4ccc(N5CCC(F)(F)CC5)cc4)nc32)C1 [Example 157] |  |  | E (E represents a pKi value of 7 or below (Ki of 100 nM or above)) | E (E represents a pKi value of 7 or below (Ki of 100 nM or above)) | B (B represents a pC50 value between 6.7 (included) and 7.5 (IC50 between 200 nM and 32 nM)) | E (E represents a pKi value of 7 or below (Ki of 100 nM or above)) | A (A represents a pKi value≥10 (Ki≤0.1 nM)) | A (A represents a value of 3 or above) | C (C represents a value between 10×10^−6 and 30×10^−6 cm/sec) |
| C=CC(=O)N1CC(CCn2c(=O)ccc3cnc(Nc4ccccc4)nc32)C1 [Example 18] |  |  | E (E represents a pKi value of 7 or below (Ki of 100 nM or above)) | E (E represents a pKi value of 7 or below (Ki of 100 nM or above)) | B (B represents a pC50 value between 6.7 (included) and 7.5 (IC50 between 200 nM and 32 nM)) | E (E represents a pKi value of 7 or below (Ki of 100 nM or above)) | A (A represents a pKi value≥10 (Ki≤0.1 nM)) | A (A represents a value of 3 or above) | C (C represents a value between 10×10^−6 and 30×10^−6 cm/sec) |
| C=CC(=O)N1CCN(CCn2c(=O)ccc3cnc(Nc4cnn(CC(F)F)c4)nc32)[C@@H](CC)C1 [Example 209] |  |  | E (E represents a pKi value of 7 or below (Ki of 100 nM or above)) | E (E represents a pKi value of 7 or below (Ki of 100 nM or above)) | B (B represents a pC50 value between 6.7 (included) and 7.5 (IC50 between 200 nM and 32 nM)) | E (E represents a pKi value of 7 or below (Ki of 100 nM or above)) | B (B represents pKi value between 9 and 10 (Ki between 1 nM and 0.1 nM)) | A (A represents a value of 3 or above) | A (A represents a value below 5×10^−6 cm/sec) |
| C=CC(=O)N1CC(CCn2c(=O)ccc3cnc(Nc4cnn(CCOC(F)F)c4)nc32)C1 [Example 25] |  |  | E (E represents a pKi value of 7 or below (Ki of 100 nM or above)) | E (E represents a pKi value of 7 or below (Ki of 100 nM or above)) | C (C represents a pIC50 value between 6 and 6.7 (IC50 between 1 μM and 200 nM)) | E (E represents a pKi value of 7 or below (Ki of 100 nM or above)) | B (B represents pKi value between 9 and 10 (Ki between 1 nM and 0.1 nM)) | A (A represents a value of 3 or above) | B (B represents a value between 5×10^−6 and 10×10^−6 cm/sec) |
| C=CC(=O)N1CCN(CCn2c(=O)ccc3cnc(Nc4cnn(C)c4)nc32)[C@@H](CO)C1 [Example 131] |  |  | E (E represents a pKi value of 7 or below (Ki of 100 nM or above)) | E (E represents a pKi value of 7 or below (Ki of 100 nM or above)) | C (C represents a pIC50 value between 6 and 6.7 (IC50 between 1 μM and 200 nM)) | E (E represents a pKi value of 7 or below (Ki of 100 nM or above)) | B (B represents pKi value between 9 and 10 (Ki between 1 nM and 0.1 nM)) | A (A represents a value of 3 or above) | A (A represents a value below 5×10^−6 cm/sec) |
| C=CC(=O)N1CC(CCn2c(=O)ccc3cnc(Nc4ccc(N5C[C@@H](C)N(C(C)=O)[C@@H](C)C5)cc4)nc32)C1 [Example 178] |  |  | E (E represents a pKi value of 7 or below (Ki of 100 nM or above)) | E (E represents a pKi value of 7 or below (Ki of 100 nM or above)) | B (B represents a pC50 value between 6.7 (included) and 7.5 (IC50 between 200 nM and 32 nM)) | E (E represents a pKi value of 7 or below (Ki of 100 nM or above)) | A (A represents a pKi value≥10 (Ki≤0.1 nM)) | A (A represents a value of 3 or above) | C (C represents a value between 10×10^−6 and 30×10^−6 cm/sec) |
| C=CC(=O)N1CC(CCn2c(=O)ccc3cnc(Nc4ccc(N(C)C)cc4)nc32)C1 [Example 91] |  |  | E (E represents a pKi value of 7 or below (Ki of 100 nM or above)) | E (E represents a pKi value of 7 or below (Ki of 100 nM or above)) | B (B represents a pC50 value between 6.7 (included) and 7.5 (IC50 between 200 nM and 32 nM)) | E (E represents a pKi value of 7 or below (Ki of 100 nM or above)) | A (A represents a pKi value≥10 (Ki≤0.1 nM)) | A (A represents a value of 3 or above) | D (D represents a value over 30×10^−6 cm/sec) |
| C=CC(=O)N1CCN(CCn2c(=O)ccc3cnc(Nc4ccc(N5CCN(C(=O)CSC)CC5)cc4)nc32)[C@@H](CC)C1 [Example 188] |  |  | E (E represents a pKi value of 7 or below (Ki of 100 nM or above)) | E (E represents a pKi value of 7 or below (Ki of 100 nM or above)) | B (B represents a pC50 value between 6.7 (included) and 7.5 (IC50 between 200 nM and 32 nM)) | E (E represents a pKi value of 7 or below (Ki of 100 nM or above)) | B (B represents pKi value between 9 and 10 (Ki between 1 nM and 0.1 nM)) | A (A represents a value of 3 or above) | C (C represents a value between 10×10^−6 and 30×10^−6 cm/sec) |
| C=CC(=O)N1CC(CCn2c(=O)ccc3cnc(Nc4ccc(N5CCN(C(=O)OC)CC5)cc4)nc32)C1 [Example 71] |  |  | E (E represents a pKi value of 7 or below (Ki of 100 nM or above)) | E (E represents a pKi value of 7 or below (Ki of 100 nM or above)) | B (B represents a pC50 value between 6.7 (included) and 7.5 (IC50 between 200 nM and 32 nM)) | E (E represents a pKi value of 7 or below (Ki of 100 nM or above)) | B (B represents pKi value between 9 and 10 (Ki between 1 nM and 0.1 nM)) | A (A represents a value of 3 or above) | B (B represents a value between 5×10^−6 and 10×10^−6 cm/sec) |
